Test results taken from patent publication US20250074911A1, “MACROCYCLIC BTK INHIBITORS” (Crossfire Oncology Holding B.V., priority 2021, published 2025).

Legend:
[1] = target: full-length wt-BTK enzyme (Homo sapiens (Human), UniProt Q06187); assay: Biochemical kinase assay wt-BTK (IMAP)
Procedure, shortened: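 IMAP fluorescence polarization assay: 1.2 nM enzyme pre-incubated 1 h with compound at room temperature, then 50 nM fluorescein-labeled MBP-derived peptide and 4 μM ATP added. Reaction ran 2 h at room temperature in the dark before quenching with IMAP binding solution.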

[2] = target: full-length BTK C481S enzyme (Homo sapiens (Human), UniProt Q06187, C481S); assay: Biochemical kinase assay BTK C481S (IMAP)
Procedure, shortened: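 Full-length BTK C481S (1.2 nM) was pre-incubated with compound for 1 h at room temperature in the dark, then reacted with fluorescein-labelled MBP-derived peptide (50 nM) and ATP (7 μM) for 2 h. Reactions were quenched with IMAP binding solution, and IC50 values were derived from fluorescence polarization.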

[3] = tested on: wt-REC-1 mantle cell lymphoma cells; assay: Cell proliferation assay wt-REC-1 (ATPlite, 72 hours); type: cell-based; conditions: 72 h; read-out: IC50 wt-REC-1
Procedure, shortened: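 Luminescent viability read over 72 h, start-of-incubation signal recorded separately to separate growth from cell death. Percentage growth referenced to compound-free 0.3% DMSO wells; IC50 from 4-parameter logistic fit.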

REC-1 T474I cell lines = assay: Cell proliferation assay REC-1 BTK T474I knock-in cells (ATPlite, 72 hours); type: cell-based; conditions: Homo sapiens, Rec1; 72 hours; read-out: IC50 REC-1 T474I
Procedure, shortened: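 REC-1 cells carrying CRISPR knock-in mutant BTK, single-cell cloned and sequence-confirmed, were exposed to compound for 72 h and read by ATPlite luminescence. Percentage growth was calculated against the signal at the start of incubation and against untreated 0.3% DMSO wells as maximum growth.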

wt-BTK = wt-BTK (Homo sapiens (Human), UniProt Q06187); assay: Binding kinetics measurements (Surface Plasmon Resonance) on wt-BTK; conditions: for Kd: binding affinity by Surface Plasmon Resonance (SPR); for Tau (h) wt-BTK (Act): target residence time, SPR
Procedure, shortened: (§1)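 SPR, single cycle kinetics: 5 injections, 3.16-316 nM, 30 μl/min (avoids mass transport limitation), 22° C, 1% DMSO buffer. Protein immobilized at 4° C on streptavidin chip, biocytin block. Blank run first; reference channel and buffer curves subtracted.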

BTK C481S = BTK C481S (Homo sapiens (Human), UniProt Q06187, C481S); assay: Binding kinetics measurements (Surface Plasmon Resonance) on BTK C481S; conditions: for Kd: binding affinity by Surface Plasmon Resonance (SPR); for Tau (h) BTK C418S (Act): target residence time for BTK C481S, SPR
Procedure, shortened: as §1

BTK T316A = BTK T316A (Homo sapiens (Human), UniProt Q06187, T316A); assay: Binding kinetics measurements (Surface Plasmon Resonance) on BTK T316A; conditions: for Kd: binding affinity by Surface Plasmon Resonance (SPR); for Tau (h) BTK T316A (Act): target residence time, SPR
Procedure, shortened: as §1

BTK T474I = BTK T474I (Homo sapiens (Human), UniProt Q06187, T474I); assay: Binding kinetics measurements (Surface Plasmon Resonance) on BTK T474I; conditions: for Kd: binding affinity by Surface Plasmon Resonance (SPR); for Tau (h) BTK T474I (Act): target residence time, SPR
Procedure, shortened: as §1

BTK T474S = BTK T474S (Homo sapiens (Human), UniProt Q06187, T474S); assay: Binding kinetics measurements (Surface Plasmon Resonance) on BTK T474S; conditions: for residence time: SPR binding kinetics, BTK T474S, read-out: Tau (h) BTK T474S (Act), target residence time (converted); for Kd: binding affinity by Surface Plasmon Resonance (SPR)
Procedure, shortened: as §1

[4] = tested on: wt-TMD8 diffuse large B-cell lymphoma cells; assay: Cell proliferation assay wt-TMD8 (ATPlite, 120 hours); type: cell-based; conditions: B-cell; wt-TMD8 cells, 120 hours, ATPlite; read-out: IC50 wt-TMD8
Procedure, shortened: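 wt-TMD8 DLBCL cells, 1600 per well in RPMI-1640 with 10% FBS, rested ≥5 h then exposed to compound for 120 h at 37° C, 5% CO2. Viability read by ATPlite luminescence; percentage growth calculated relative to start-of-incubation signal and untreated 0.3% DMSO maximum growth.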

Chain of BTK T474I (Q06187 whole entry T474I): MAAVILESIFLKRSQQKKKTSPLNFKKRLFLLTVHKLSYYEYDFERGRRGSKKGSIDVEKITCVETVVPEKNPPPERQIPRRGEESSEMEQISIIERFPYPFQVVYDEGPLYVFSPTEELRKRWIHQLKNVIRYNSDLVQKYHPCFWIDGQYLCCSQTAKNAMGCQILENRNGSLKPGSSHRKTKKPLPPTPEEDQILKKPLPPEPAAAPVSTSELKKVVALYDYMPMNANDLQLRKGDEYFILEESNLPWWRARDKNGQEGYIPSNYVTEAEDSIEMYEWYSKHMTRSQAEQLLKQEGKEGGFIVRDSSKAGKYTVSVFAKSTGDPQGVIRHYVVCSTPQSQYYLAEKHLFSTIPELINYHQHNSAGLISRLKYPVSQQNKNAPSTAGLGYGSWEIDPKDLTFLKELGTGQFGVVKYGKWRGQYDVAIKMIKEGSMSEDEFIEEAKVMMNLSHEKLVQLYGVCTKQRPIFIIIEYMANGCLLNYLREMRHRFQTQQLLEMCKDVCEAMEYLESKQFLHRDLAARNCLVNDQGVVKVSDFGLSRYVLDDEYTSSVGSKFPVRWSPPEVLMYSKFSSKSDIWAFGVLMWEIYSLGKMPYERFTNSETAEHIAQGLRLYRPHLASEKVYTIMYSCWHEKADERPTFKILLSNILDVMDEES
Chain of full-length wt-BTK enzyme (Q06187 whole entry): as the sequence (Q06187 whole entry T474I) above, with I474T counted along it
Chain of wt-BTK (Q06187 whole entry): as the sequence (Q06187 whole entry T474I) above, with I474T counted along it
Chain of full-length BTK C481S enzyme (Q06187 whole entry C481S): as the sequence (Q06187 whole entry T474I) above, with I474T, C481S counted along it
Chain of BTK C481S (Q06187 whole entry C481S): as the sequence (Q06187 whole entry T474I) above, with I474T, C481S counted along it
Chain of BTK T316A (Q06187 whole entry T316A): as the sequence (Q06187 whole entry T474I) above, with T316A, I474T counted along it
Chain of BTK T474S (Q06187 whole entry T474S): as the sequence (Q06187 whole entry T474I) above, with I474S counted along it

| SMILES | IC50 [1] [nM] | IC50 [2] [nM] | IC50 [3] [nM] | IC50 (REC-1 T474I cell lines) [nM] | Kd (wt-BTK) [nM] | Tau (h) wt-BTK (Act) (wt-BTK) [h] | Kd (BTK C481S) [nM] | Tau (h) BTK C418S (Act) (BTK C481S) [h] | Kd (BTK T316A) [nM] | Kd (BTK T474I) [nM] | residence time (BTK T474S) [h] | Kd (BTK T474S) [nM] | IC50 [4] [nM] | Tau (h) BTK T316A (Act) (BTK T316A) [h] | Tau (h) BTK T474I (Act) (BTK T474I) [h] |
| --- | --- | --- | --- | --- | --- | --- | --- | --- | --- | --- | --- | --- | --- | --- | --- |
| C[C@@H]1CCn2nc(-c3ccc(C(=O)Nc4cc(C#N)ccn4)cc3)c3c(N)ncc(c32)/C=C/CCOCCC(=O)N1 [Example 153] | < 5 | < 5 | 100 to 1000 | 500 to 10000 | < 5 | 1.29 | < 5 | 1.67 | < 5 | < 2 | 1.97 | < 3 | < 100 |  |  |
| N#Cc1ccnc(NC(=O)c2ccc(-c3nn4c5c(cnc(N)c35)/C=C/CCOCCC(=O)N[C@@H]3CCC[C@@H]4C3)cc2)c1 [Example 155] | < 5 | < 5 | < 100 | < 100 | < 5 | 9.97 | < 5 | 2.21 | < 5 | < 2 | 3.8 | < 3 | < 100 | 2.91 | 2.63 |
| C[C@@H]1CC(=O)N[C@@H]2CCC[C@H](C2)n2nc(-c3ccc(C(=O)Nc4cc(C(F)(F)F)ccn4)cc3)c3c(N)ncc(c32)/C=C/CCO1 [Example 157] | < 5 | < 5 | < 100 | < 100 | < 5 | 5.15 | < 5 | 2.42 | < 5 | < 2 | 1.47 | < 3 | < 100 | 5.27 | 3.34 |
| C[C@@H]1CC(=O)N[C@@H]2CCC[C@H](C2)n2nc(-c3ccc(C(=O)Nc4cc(C#N)ccn4)cc3)c3c(N)ncc(c32)/C=C/CCO1 [Example 162] | < 5 | < 5 | < 100 | < 100 |  | 3.41 |  | 6.32 |  |  | 2.02 |  | < 100 | 7.64 | 2.05 |
| N#Cc1ccnc(NC(=O)c2ccc(-c3nn4c5c(cnc(N)c35)/C=C/CCCCCC(=O)N[C@@H]3CCC[C@@H]4C3)cc2)c1 [Example 163] | < 5 | < 5 | < 100 | < 100 |  | >24 |  | 3.51 |  |  | 6.74 |  | < 100 | 4.67 | 4.37 |
| N#Cc1ccnc(NC(=O)c2ccc(-c3nn4c5c(cnc(N)c35)/C=C/COCCC(=O)N[C@@H]3CCC[C@@H]4C3)cc2)c1 [Example 164] | < 5 | < 5 | < 100 | < 100 |  | 10.55 |  | >24 |  |  | 6.88 |  | < 100 | 3.41 | 0.90 |
| Nc1ncc2c3c1c(-c1ccc(C(=O)Nc4cc(C(F)(F)F)ccn4)cc1)nn3[C@@H]1CC[C@H](C1)NC(=O)CCCCC/C=C/2 [Example 168] | < 5 | < 5 | < 100 | < 100 |  | 3.66 |  | 6.64 |  |  | > 24 |  | < 100 | 3.81 | 3.14 |
| Nc1ncc2c3c1c(-c1ccc(C(=O)Nc4cc(C(F)(F)F)ccn4)cc1)nn3[C@@H]1CC[C@H](C1)NC(=O)CCOCC/C=C/2 [Example 169] | < 5 | < 5 | < 100 | < 100 |  | 2.34 |  | 6.60 |  |  | 2.56 |  | < 100 | 1.77 | 3.69 |
| Nc1ncc2c3c1c(-c1ccc(C(=O)Nc4cc(C(F)(F)F)ccn4)cc1)nn3[C@@H]1CC[C@H](C1)NC(=O)CCOC/C=C/2 [Example 170] | < 5 | < 5 | < 100 | < 100 |  | 2.05 |  | 2.76 |  |  | 3.15 |  | < 100 | 1.58 | 2.54 |
| C[C@@H]1C[C@@H](C)n2nc(-c3ccc(C(=O)Nc4cc(C(F)(F)F)ccn4)cc3)c3c(N)ncc(c32)/C=C/CCCCCC(=O)N1 [Example 172] | < 5 | < 5 | < 100 | < 100 | < 5 | 4.83 | < 5 | 4.28 | < 5 | < 2 | 18.9 | < 3 | < 100 | 2.18 | 2.35 |
